In ChEMBL document CHEMBL1255486, “Effect of vicriviroc on the QT/corrected QT interval and central nervous system in healthy subjects” (Antimicrob Agents Chemother, 2010):

Tests used:
Homo sapiens [1] = assay: Toxicity in healthy human assessed as nausea at 150 […], po once daily for 7 days; type: organism-based; set-up: route oral; conditions: in vivo, 168 h
[2] = Tmax in healthy human at 30 mg/kg, po after 10 days; type: ADME, organism-based; set-up: dose 30 mg/kg, route oral; conditions: in vivo
Homo sapiens [3] = assay: Toxicity in healthy human assessed as pollakiuria at 300 […], po administered as single dose; type: organism-based; set-up: route oral; conditions: in vivo
[4] = AUC (0 to 24 hrs) in healthy human at 200 mg/kg, po once daily for 7 days; type: ADME, organism-based; set-up: time < 24 hr, dose 200 mg/kg, route oral; conditions: plasma
[5] = Cmax in healthy human at 250 mg/kg, po once daily for 7 days measured after 1 day of last dose; type: ADME, organism-based; set-up: dose 250 mg/kg, route oral; conditions: in vivo
Homo sapiens [6] = assay: Toxicity in healthy human assessed as pollakiuria at 200 […], po administered as single dose; type: organism-based; set-up: route oral; conditions: in vivo
Homo sapiens [7] = assay: Toxicity in healthy human assessed as pollakiuria at 250 […], po once daily for 7 days; type: organism-based; set-up: route oral; conditions: in vivo, 168 h
[8] = Cmax in healthy human at 150 […], po once daily for 7 days; type: ADME, organism-based; set-up: dose 150 mg/kg, route oral; conditions: in vivo
Homo sapiens [9] = assay: Toxicity in healthy human assessed as back pain at 300 mg/kg, po administered as single dose; type: organism-based; set-up: dose 300 mg/kg, route oral; conditions: in vivo
Homo sapiens [10] = assay: Toxicity in healthy human assessed as headache at 200 […], po administered as single dose; type: organism-based; set-up: route oral; conditions: in vivo
Homo sapiens [11] = assay: Toxicity in healthy human assessed as nausea at 200 […], po administered as single dose; type: organism-based; set-up: route oral; conditions: in vivo
[12] = AUC (0 to infinity) in healthy human at 250 mg/kg, po administered as single dose after 1 day; type: ADME, organism-based; set-up: time infinity, dose 250 mg/kg, route oral; conditions: plasma
[13] = AUC (0 to 24 hrs) in healthy human at 30 mg/kg, po after 10 days; type: ADME, organism-based; set-up: time < 24 hr, dose 30 mg/kg, route oral; conditions: plasma
Homo sapiens [14] = assay: Cardiotoxicity in healthy human assessed as change in corrected QT interval at 150 […], po after 10 days by ECG; type: toxicity, organism-based; set-up: dose 150 mg/kg, route oral; conditions: in vivo, 240 h
Homo sapiens [15] = assay: Cardiotoxicity in healthy human assessed as change in corrected QT interval at 30 mg/kg, po after 10 days by ECG; type: toxicity, organism-based; set-up: dose 30 mg/kg, route oral; conditions: in vivo, 240 h
[16] = Cmax in healthy human at 250 mg/kg, po administered as single dose after 1 day; type: ADME, organism-based; set-up: dose 250 mg/kg, route oral; conditions: in vivo
[17] = AUC (0 to 24 hrs) in healthy human at 150 […], po after 10 days; type: ADME, organism-based; set-up: time < 24 hr, dose 150 mg/kg, route oral; conditions: plasma
Homo sapiens [18] = assay: Toxicity in healthy human assessed as fatigue at 150 […], po once daily for 7 days; type: organism-based; set-up: route oral; conditions: in vivo, 168 h
Homo sapiens [19] = assay: Toxicity in healthy human assessed as fatigue at 200 […], po once daily for 7 days; type: organism-based; set-up: route oral; conditions: in vivo, 168 h
Homo sapiens [20] = assay: Toxicity in healthy human assessed as pollakiuria at 150 […], po once daily for 7 days; type: organism-based; set-up: route oral; conditions: in vivo, 168 h
[21] = Cmax in healthy human at 150 […], po after 10 days; type: ADME, organism-based; set-up: dose 150 mg/kg, route oral; conditions: in vivo
[22] = Cmax in healthy human at 300 mg/kg, po administered as single dose after 1 day; type: ADME, organism-based; set-up: dose 300 mg/kg, route oral; conditions: in vivo
Homo sapiens [23] = assay: Toxicity in healthy human assessed as pollakiuria at 250 […], po administered as single dose; type: organism-based; set-up: route oral; conditions: in vivo
[24] = Tmax in healthy human at 300 mg/kg, po administered as single dose after 1 day; type: ADME, organism-based; set-up: dose 300 mg/kg, route oral; conditions: in vivo
Homo sapiens [25] = assay: Toxicity in healthy human assessed as increase in blood […] at 300 […], po once daily for 7 days; type: organism-based; set-up: route oral; conditions: in vivo, 168 h
[26] = Tmax in healthy human at 200 mg/kg, po once daily for 7 days; type: ADME, organism-based; set-up: dose 200 mg/kg, route oral; conditions: in vivo
[27] = Tmax in healthy human at 250 mg/kg, po administered as single dose after 1 day; type: ADME, organism-based; set-up: dose 250 mg/kg, route oral; conditions: in vivo
[28] = Tmax in healthy human at 250 mg/kg, po once daily for 7 days measured after 1 day of last dose; type: ADME, organism-based; set-up: dose 250 mg/kg, route oral; conditions: in vivo
Homo sapiens [29] = assay: Toxicity in healthy human assessed as fatigue at 200 […], po administered as single dose; type: organism-based; set-up: route oral; conditions: in vivo
[30] = Tmax in healthy human at 200 mg/kg, po once daily for 7 days measured after 1 day of last dose; type: ADME, organism-based; set-up: dose 200 mg/kg, route oral; conditions: in vivo
[31] = AUC (0 to 24 hrs) in healthy human at 150 […], po once daily for 7 days; type: ADME, organism-based; set-up: time < 24 hr, dose 150 mg/kg, route oral; conditions: plasma
[32] = Cmax in healthy human at 200 mg/kg, po administered as single dose after 1 day; type: ADME, organism-based; set-up: dose 200 mg/kg, route oral; conditions: in vivo
[33] = Cmax in healthy human at 200 mg/kg, po once daily for 7 days measured after 1 day of last dose; type: ADME, organism-based; set-up: dose 200 mg/kg, route oral; conditions: in vivo
[34] = Tmax in healthy human at 150 […], po once daily for 7 days measured after 1 day of last dose; type: ADME, organism-based; set-up: dose 150 mg/kg, route oral; conditions: in vivo
Homo sapiens [35] = assay: Toxicity in healthy human assessed as headache at 200 […], po once daily for 7 days; type: organism-based; set-up: route oral; conditions: in vivo, 168 h
Homo sapiens [36] = assay: Toxicity in healthy human assessed as puncture site pain at 250 […], po once daily for 7 days; type: organism-based; set-up: route oral; conditions: in vivo, 168 h

SMILES: COC[C@@H](c1ccc(C(F)(F)F)cc1)N1CCN(C2(C)CCN(C(=O)c3c(C)ncnc3C)CC2)C[C@@H]1C [VICRIVIROC]
- Activity (Homo sapiens [1]): 17%
- Tmax [2]: 2 h
- Activity (Homo sapiens [3]): 0%
- AUC at 24 h [4]: 8.14 µg·h/mL
- Cmax [5]: 0.791 µg/mL
- Activity (Homo sapiens [6]): 0%
- Activity (Homo sapiens [7]): 0%
- Cmax [8]: 0.649 µg/mL
- Activity (Homo sapiens [9]): 20%
- Activity (Homo sapiens [10]): 0%
- Activity (Homo sapiens [11]): 0%
- AUC(0-inf) [12]: 11 µg·h/mL
- AUC at 24 h [13]: 6.67 µg·h/mL
- Activity (Homo sapiens [14]): Non-toxic
- Activity (Homo sapiens [15]): Non-toxic
- Cmax [16]: 0.984 µg/mL
- AUC at 24 h [17]: 32.2 µg·h/mL
- Activity (Homo sapiens [18]): 50%
- Activity (Homo sapiens [19]): 0%
- Activity (Homo sapiens [20]): 38%
- Cmax [21]: 1.9 µg/mL
- Cmax [22]: 1.13 µg/mL
- Activity (Homo sapiens [23]): 0%
- Tmax [24]: 2.9 h
- Activity (Homo sapiens [25]): 10%
- Tmax [26]: 2 h
- Tmax [27]: 2 h
- Tmax [28]: 1.5 h
- Activity (Homo sapiens [29]): 0%
- Tmax [30]: 1.75 h
- AUC at 24 h [31]: 6.06 µg·h/mL
- Cmax [32]: 0.731 µg/mL
- Cmax [33]: 0.838 µg/mL
- Tmax [34]: 1.75 h
- Activity (Homo sapiens [35]): 13%
- Activity (Homo sapiens [36]): 17%
